Source: patent US5006570A, “Dihydrobenzofuran- and chroman-carboxamide derivatives, processes for the preparation thereof and use thereof as neuroleptics” (Laboratoires Delagrange, priority 1986, dated 1991)
Like-named read-outs stand apart in the source and are kept apart here.

Tests used:
[1] = system: spontaneous motor function in mice; experiment: Inhibition of spontaneous motor function in mice, Animex activity measurement test; assay type: in vivo; conditions: Mus musculus
From the text: (§1) Thus, an inhibitory effect on spontaneous motor function in mice, a catalepsy-inducing power in rats, and antagonism towards certain apomorphine- and amphetamine-induced behavioural effects were investigated, in particular.
(§2) Regarding the spontaneous motor function in mice, an inhibitory effect of the inventive compounds was effectively observed and recorded by a photoelectric method, according to a technique similar to that of Winter and Flataker (J. Pharmacol. Exp. Ther. 1951, 101, 156-162) and by measurement of activity using an Animex apparatus.
(§3) The compounds were administered intraperitoneally or orally, respectively, 15 or 60 minutes before the recording according to the method adopted.
(§4) The values of the 50% inhibitory doses of motor function ID50 of the compounds are collected in the following table: […]

Apomorphine stereotypy [2] = experiment: Antagonism of apomorphine stereotypy in rats (0.5 mg/kg SC, derived from Puech); assay type: in vivo; conditions: Rattus norvegicus, ip, compound i.p. 30 minutes before apomorphine 0.5 mg/kg SC, read-out: ID50 I.P., Apomorphine stereotypy (0.5 mg/kg SC)
From the text: (§5) Apomorphine and amphetamine induce stereotyped movements in rats which are antagonized by neuroleptics. […]
(§6) These different experimental conditions made it possible to establish the doses which antagonize stereotypy by 50% (ID50), judged on the basis of the various components of the movements which were observed.

[3] = Acute toxicity in mice (LD50, Bliss' method); conditions: mouse, in vivo
Protocol: Acute toxicity was studied in mice, the compounds being administered intravenously, subcutaneously, intraperitoneally and orally.
The doses causing the death of 50% of the animals (LD50) were determined by Bliss' method, giving the following results: […]

[4] = system: apomorphine-induced climbing behavior; experiment: Antagonism of apomorphine-induced climbing behavior in mice; assay type: in vivo; conditions: Mus musculus, ip, compound i.p. 30 minutes before apomorphine 1 mg/kg s.c., read-out: ID50 I.P., apomorphine-induced climbing behavior
Protocol: Another test using apomorphine was applied, based on the observation of the climbing behavior which it induces in mice, this behavior being antagonized by neuroleptics, according to Puech (Eur. J. Pharmacol. 1978, 50, 291-300).
The compound was administered intraperitoneally 30 minutes before the apomorphine (1 mg/kg subcutaneously), and the antagonism was assessed 45 to 50 minutes after the administration of the compound.

[5] = system: dexamphetamine stereotypy; experiment: Antagonism of dexamphetamine stereotypy in rats (Janssen amphetamine test); assay type: in vivo; conditions: Rattus norvegicus, sc, 1 h, compound s.c. simultaneously with dexamphetamine 10 mg/kg i.v., effect at 60 minutes, read-out: ID50 S.C., Janssen amphetamine test
Protocol: Apomorphine and amphetamine induce stereotyped movements in rats which are antagonized by neuroleptics. Different doses of apomorphine administered by different routes were applied to produce these movements. In the test using dexamphetamine, carried out according to the technique of Janssen (Arz. Forsch. 1961, 11, 932-938), 10 mg/kg of dexamphetamine were injected intravenously, the test product being injected simultaneously subcutaneously, and the effect being measured 60 minutes after these injections. These different experimental conditions made it possible to establish the doses which antagonize stereotypy by 50% (ID50), judged on the basis of the various components of the movements which were observed.

catalepsy in rats = experiment: Catalepsy in rats; assay type: in vivo; conditions: Rattus norvegicus, sc, subcutaneously, at the peak of effect
Protocol: The catalepsy-inducing function of the compounds of the invention was studied in rats. Each of the compounds was administered subcutaneously, at increasing doses, to groups of 10 rats (1 group for each dose). […] The dose giving rise to catalepsy in 50% of the animals (ED50) was determined graphically, at the peak of effect.

[6] = system: spontaneous motor function in mice; experiment: Inhibition of spontaneous motor function in mice, Winter and Flataker test (photoelectric method); assay type: in vivo; conditions: Mus musculus
From the text: as §1, §2, §3, §4

Apomorphine stereotypy [7] = experiment: Antagonism of apomorphine stereotypy in rats (1.25 mg/kg IV, Janssen); assay type: in vivo; conditions: Rattus norvegicus, sc, compound s.c. 60 minutes before apomorphine 1.25 mg/kg IV, read-out: ID50 S.C., Apomorphine stereotypy (1.25 mg/kg IV)
From the text: as §5, §6

[8] = ip, read-out: ID50 i.p., Animex activity measurement test
[9] = po, read-out: ID50 p.o., Animex activity measurement test
[10] = ip, read-out: Lethal doses50 i.p.
[11] = iv, read-out: Lethal doses50 i.v.
[12] = po, orally, read-out: Lethal doses50 orally
[13] = sc, read-out: Lethal doses50 s.c.
[14] = ip, read-out: ID50 i.p., Winter and Flataker test
[15] = po, read-out: ID50 p.o., Winter and Flataker test

Work on O=C(NCC1CCCN1CC1=CCCCC1)c1cc(Cl)cc2c1OCC2 (centres unmarked) [Ex 14, N-(1-Cyclohexenylmethyl-2-pyrrolidinylmethyl)-5-chloro-2,3-dihydrobenzofuran-7-carboxamide] yielded an ED50 [1, 8] of 1.7 mg/kg, an ED50 [1, 9] of 25 mg/kg and an ED50 (Apomorphine stereotypy [2]) of 0.31 to 0.41 mg/kg. The LD50 [3, 10] was 69.6 to 83.3 mg/kg, the LD50 [3, 11] was 24.8 mg/kg and the LD50 [3, 12] was 350 to 354 mg/kg. The LD50 [3, 13] was 412 to 434 mg/kg, the ED50 [4] was 0.27 to 0.29 mg/kg and the ED50 [5] was 0.12 mg/kg. For the same compound, the ED50 (catalepsy in rats) was 2.7 mg/kg, the ED50 [6, 14] was 2.1 mg/kg and the ED50 [6, 15] was 27 mg/kg. The ED50 (Apomorphine stereotypy [7]) was 0.29 mg/kg.
O=C(NCC1CCCN1CC1=CCCCC1)c1cc(Cl)cc2c1OCCC2.O=C(O)/C=C/C(=O)O (centres unmarked) [Ex 13, N-(1-Cyclohexenylmethyl-2-pyrrolidinylmethyl)-6-chlorochroman-8-carboxamide fumarate] gave an ED50 [1, 8] of 3 mg/kg, an ED50 [1, 9] of 22.7 mg/kg and an ED50 (Apomorphine stereotypy [2]) of 0.38 to 0.44 mg/kg. For the same compound, the LD50 [3, 10] was 120 mg/kg, the LD50 [3, 12] was 422 to 473 mg/kg and the mortality ([3]; sc, at 900 mg/kg, read-out: deaths of animals at 900 mg/kg s.c.) was 0%. The ED50 [4] was 0.32 to 0.35 mg/kg, the ED50 [5] was 0.15 mg/kg and the ED50 (catalepsy in rats) was 1.5 mg/kg. The ED50 [6, 14] was 1.96 mg/kg, the ED50 [6, 15] was 20.9 mg/kg and the ED50 (Apomorphine stereotypy [7]) was 0.22 mg/kg.
CCS(=O)(=O)c1cc2c(c(C(=O)NCC3CCCN3CC3CC3)c1)OC(C)C2.Cl (centres unmarked) [Ex 9, N-(1-Cyclopropylmethyl-2-pyrrolidinylmethyl)-5-ethylsulphonyl-2-methyl-2,3-dihydrobenzofuran-7-carboxamide hydrochloride] showed an ED50 [1, 8] of 3 mg/kg, an ED50 [1, 9] of 23.4 mg/kg and an ED50 (Apomorphine stereotypy [2]) of 1.2 to 1.6 mg/kg. It also gave an LD50 [3, 10] of 211 to 213 mg/kg, an LD50 [3, 11] of 68.8 to 70.2 mg/kg and an LD50 [3, 12] of 390 to 391 mg/kg. The LD50 [3, 13] was 440 to 462 mg/kg, the ED50 [4] was 0.4 to 0.55 mg/kg and the ED50 [5] was 1.1 mg/kg. For the same compound, the ED50 (catalepsy in rats) was 20.7 mg/kg, the ED50 [6, 14] was 3.2 mg/kg and the ED50 [6, 15] was 31.5 mg/kg. For the same compound, the ED50 (Apomorphine stereotypy [7]) was 3.6 mg/kg.
Work on CC1Cc2cc(Cl)cc(C(=O)NCC3CCCN3CC3=CCCCC3)c2O1 (centres unmarked) [Ex 15, Neutral ethanedisulphonate of N-(1-cyclohexenylmethyl-2-pyrrolidinylmethyl)-5-chloro-2-methyl-2,3-dihydrobenzofuran-7-carboxamide] yielded an ED50 [1, 8] of 2.2 mg/kg, an ED50 [1, 9] of 23.2 mg/kg and an ED50 (Apomorphine stereotypy [2]) of 0.58 to 0.59 mg/kg. It also gave an LD50 [3, 10] of 232 to 234 mg/kg, an LD50 [3, 11] of 31.1 to 34.7 mg/kg and an LD50 [3, 13] of 1410 mg/kg. For the same compound, the ED50 [4] was 0.28 to 0.34 mg/kg, the ED50 [5] was 0.18 mg/kg and the ED50 (catalepsy in rats) was 1.35 mg/kg. For the same compound, the ED50 [6, 14] was 3.5 mg/kg, the ED50 [6, 15] was 43.4 mg/kg and the ED50 (Apomorphine stereotypy [7]) was 0.41 mg/kg.
